{
  "source": "paper PMC4306314",
  "about": "“Differential neuroprotective potential of CRMP2 peptide aptamers conjugated to cationic, hydrophobic, and amphipathic cell penetrating peptides” (Frontiers in Cellular Neuroscience, 2015)",
  "key": {"[1]": {"tested_on": "cortical neurons", "assay": "Glutamate-induced toxicity, chromogenic cell viability assay", "type": "cell-based, rat", "details": "for Prevention of Glu/Gly-induced neuronal cell death by NMDAR subunit blockers: Ifenprodil 1 µM, Peaqx 5 µM, 10 min before and during 200 µM glutamate/20 µM glycine 30 min, 7 DIV, viability 24 h later, 32 wells", "method": "E19 neurons (grown in 96 well plates) were stimulated with 200 µM glutamate/20 µM glycine to induce neuronal death as previously described with modifications (Brittain et al., [2011a]). Neurons were pre-treated with peptides by removing half of the culture medium and replacing with fresh medium containing twice the final concentration of peptide. Neurons were then stimulated by removing half the medium and replacing with fresh medium containing 400 µM glutamate/40 µM glycine and 1X peptide concentration. Following a 30 min stimulation the medium was completely removed and replaced with half fresh/half conditioned medium. Cell viability was quantified 24 h later using the 3-(4,5-dimethylthiazol-2-yl)-5-(3-carboxymethoxyphenyl)-2-(4-sulfophenyl)-2H-tetrazolium cell viability assay (Promega, Madison, WI, USA) as previously described (Brittain et al., [2011a]). Subunit-specific NMDAR antagonists Peaqx (NR2A) and Ifenprodil (NR2B) were purchased from Sigma."}, "[2]": {"details": "of the CPP itself; ref Sarko et al., 2010; cited from earlier work"}, "[3]": {"tested_on": "GPMVs derived from cortical neurons", "assay": "Peptide penetration into giant plasma membrane vesicles (GPMVs), di-4-ANEPPDHQ staining", "type": "in vitro ADME, rat", "details": "10 µM peptide; for Change in percent of GPMVs with intracellular staining, vesicles from Glu/Gly-challenged vs unchallenged cells: neurons challenged 1 h with 200 µM glutamate + 20 µM glycine before vesiculation", "method": "Giant plasma membrane vesicles (GPMVs) were obtained as previously described in Sezgin et al. ([2012]). Briefly, GPMVs were generated from cortical neurons incubated at 37°C for 90 min in a vesiculation buffer containing 10 mM HEPES, 150 mM NaCl, 2 mM CaCl2, pH 7.4 containing 2 mM N-ethyl maleimide (NEM). After GPMV formation, the buffer containing vesicles was recovered and conserved at 4°C for at least 2 h to allow the vesicles to concentrate at the bottom of the tube. As the GPMVs were stable for ~48 h (data not shown), they were used the day after formation at the latest.\nAll experiments for microscopic analyses of GPMVs were performed on 35 mm glass bottom dishes pre-coated with BSA (1 mg/mL for 1 h at room temperature). Approximately 100 µL of GMPVs labeled with 5 µM di-4-ANEPPDHQ were incubated for 3 h at room temperature with 10 µM of CBD3 peptide aptamers. di-4-ANEPPDHQ, a styryl dye that was originally developed to detect transmembrane potential changes, is considered to be a good probe for rafts (Jin et al., [2005]) and was used to label GPMVs. di-4-ANEPPDHQ is able to partition into both liquid-ordered and liquid-disordered phase domains in model membranes, reacts to the environmental difference between the two phases via conformational changes, thus resulting in different fluorescence properties (Jin et al., [2005]). Here, we studied the 500–550 nm emission of the probe, which accounts largely for the liquid ordered phase.\nFluorescence imaging was performed with an inverted microscope, Nikon Eclipse TE2000-U, using objective Nikon Super Fluor 20× 0.75 NA and a Photometrics cooled CCD camera CoolSNAPHQ-ES2 (Roper Scientific, Tucson, AZ, USA) controlled by MetaFluor 6.3 software (Molecular Devices, Downingtown, PA, USA). […] Twenty images of each condition were systematically recorded randomly, using a FITC filter (excitation and emission wavelength 488 nm and 500–550 nm, respectively), which accounted for the liquid ordered contribution of di-4-ANEPPDHQ or the localization of FITC-peptides."}, "[4]": {"tested_on": "cortical neurons", "assay": "Uptake and efflux of FITC-labeled CBD3 peptides from cortical neurons", "type": "in vitro ADME, rat", "details": "for Cumulative efflux (AUC), glutamate-challenged vs unchallenged cells, long-term application: chronic peptide treatment, media sampled up to 3 h", "method": "Cortical neurons were seeded into 96-well plates at 3.5 × 10^4 cells per well and cultured until 7 DIV at 37°C and 5% CO2. […] After four washes with phenol red free Leibovitz medium, the FITC fluorescence in the cells was measured using a Synergy 2 fluorescent plate reader (Biotek, Winooski, VT, USA) at an excitation wavelength of 485 nm and emission wavelength of 530 nm. […] To correct for any differences in cell plating, at the end of the experiment cortical neurons were lysed with 20 mM Tris, pH 7.4, 50 mM NaCl, 1% NP40, 0.5% sodium deoxycholate, 0.1% SDS Protease inhibitor cocktail set III (Calbiochem), phosphatase inhibitor cocktail set I (Calbiochem), 50 U/ml benzonase (Merck) and the protein quantity determined with a Pierce assay."}, "[5]": {"molecular_target": "T1, CRMP2-NR2B interaction (Rattus norvegicus, UniProt Q00960)", "T1 construct": "Rat brains were lysed into the immunoprecipitation buffer; from tissue; host or cells: rat brain", "T1 sequence (Q00960 27-1482, other chains not shown)": "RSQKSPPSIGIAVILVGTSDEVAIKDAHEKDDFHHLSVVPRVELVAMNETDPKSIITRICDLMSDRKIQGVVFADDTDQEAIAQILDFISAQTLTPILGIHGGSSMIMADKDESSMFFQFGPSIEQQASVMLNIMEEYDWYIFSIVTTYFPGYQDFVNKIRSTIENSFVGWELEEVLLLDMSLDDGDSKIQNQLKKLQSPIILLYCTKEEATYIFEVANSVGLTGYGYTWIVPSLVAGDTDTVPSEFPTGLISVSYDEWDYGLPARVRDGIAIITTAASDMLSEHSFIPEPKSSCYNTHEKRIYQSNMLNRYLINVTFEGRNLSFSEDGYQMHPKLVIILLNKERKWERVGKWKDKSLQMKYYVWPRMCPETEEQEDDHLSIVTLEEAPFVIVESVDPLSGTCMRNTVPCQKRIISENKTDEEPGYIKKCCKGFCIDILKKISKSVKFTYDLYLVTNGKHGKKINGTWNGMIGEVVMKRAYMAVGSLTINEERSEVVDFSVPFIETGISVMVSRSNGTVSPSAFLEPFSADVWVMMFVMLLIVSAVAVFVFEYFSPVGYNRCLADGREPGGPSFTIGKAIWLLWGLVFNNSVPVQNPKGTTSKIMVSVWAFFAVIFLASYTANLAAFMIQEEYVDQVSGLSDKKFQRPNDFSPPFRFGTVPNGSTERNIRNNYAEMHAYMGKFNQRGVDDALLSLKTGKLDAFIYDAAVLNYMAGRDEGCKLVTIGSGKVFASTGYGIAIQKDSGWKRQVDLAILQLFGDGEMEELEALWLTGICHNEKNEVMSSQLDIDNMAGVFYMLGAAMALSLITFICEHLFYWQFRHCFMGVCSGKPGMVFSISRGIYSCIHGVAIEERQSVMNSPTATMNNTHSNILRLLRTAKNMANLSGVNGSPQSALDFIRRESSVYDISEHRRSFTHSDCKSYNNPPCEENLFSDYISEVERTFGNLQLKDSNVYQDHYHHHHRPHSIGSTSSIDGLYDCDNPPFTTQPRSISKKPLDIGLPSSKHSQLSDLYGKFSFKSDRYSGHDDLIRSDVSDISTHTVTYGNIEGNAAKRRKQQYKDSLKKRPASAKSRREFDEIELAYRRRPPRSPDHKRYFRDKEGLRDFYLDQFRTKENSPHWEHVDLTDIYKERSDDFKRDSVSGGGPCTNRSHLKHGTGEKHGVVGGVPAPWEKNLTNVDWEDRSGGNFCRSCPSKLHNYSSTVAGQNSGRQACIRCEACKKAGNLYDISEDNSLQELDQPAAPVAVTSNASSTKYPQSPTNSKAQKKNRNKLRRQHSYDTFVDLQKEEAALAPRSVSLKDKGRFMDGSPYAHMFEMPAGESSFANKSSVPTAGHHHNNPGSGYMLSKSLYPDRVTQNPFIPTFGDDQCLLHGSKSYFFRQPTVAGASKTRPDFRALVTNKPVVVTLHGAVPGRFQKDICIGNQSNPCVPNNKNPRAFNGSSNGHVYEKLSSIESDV", "assay": "Co-immunoprecipitation of NR2B with CRMP2 from rat brain lysates", "type": "binding", "details": "10 µM peptide, overnight 4°C, rat brain lysate, immunoblot, n = 4", "method": "Rat brains were lysed into the immunoprecipitation buffer containing 20 mM Tris-HCl pH 7.4, 50 mM NaCl, 2 mM MgCl2, 1% (vol/vol) NP40, 0.5% (mass/vol) sodium deoxycholate with Protease/phosphatase inhibitors cocktails (Calbiochem) and Benzonase (50 U/mL^−1), using a dounce homogenizer. The lysates were clarified by centrifugation at 10000 g, 10 min, 4°C then total protein concentration was determined by BCA protein assay (Cat# PI23225, Thermo scientific). For the co-immunoprecipitation, 300 µg of total protein was incubated with 1 µg of CRMP2 antibody (Cat# C2993, Sigma, St. Louis, MO, USA) of non-specific rabbit IgG, in the presence of 10 µM of the indicated peptides and incubated overnight at 4°C under gentle agitation. Protein G magnetic beads (Cat# 10004D, Life Technologies) pre-equilibrated with the immunoprecipitation buffer, were added to the mixture and allowed to incubate for 1 h at 4°C to capture the immuno-complexes. The beads were washed four times with the immunoprecipitation buffer before re-suspension in Laemmli buffer and boiling at 95°C for 5 min prior to immunoblotting.\nIndicated samples were loaded on 4–12% NuPAGE® gels (Life Technologies). […] Films were scanned, and quantified using Un-Scan-It gel version 6.1 scanning software (Silk Scientific Inc, Orem, UT, USA)."}, "[6]": {"design": "method as in Wender et al., 2000", "details": "ref Wender et al., 2000; cited from earlier work"}},
  "note": "Like-named read-outs stand apart in the source and are kept apart here. Where no end group is shown, it is not given here.",
  "data": [
    {"compound": "CC(C(O)c1ccc(O)cc1)N1CCC(Cc2ccccc2)CC1", "note": "(centres unmarked) [Ifenprodil, reference compound]", "values": [
      {"measurement": "Prevention of Glu/Gly-induced neuronal cell death by NMDAR subunit blockers", "setting": "[1]", "value": "completely prevent"}
    ]},
    {"compound": "C[C@H](NC(c1cccc2[nH]c(=O)c(=O)[nH]c12)P(=O)(O)O)c1ccc(Br)cc1", "note": "(some centres unmarked) [Peaqx, reference compound]", "values": [
      {"measurement": "Prevention of Glu/Gly-induced neuronal cell death by NMDAR subunit blockers", "setting": "[1]", "value": "not"}
    ]},
    {"compound": "AAVALLPAVLLALLAP [MTS]", "values": [
      {"measurement": "Half-life (t1/2)", "setting": "[2]", "value": "~ 48 h"}
    ]},
    {"compound": "AAVALLPAVLLALLAPARSRLAELRGVPRGL [MTS-CBD3]", "values": [
      {"measurement": "Change in percent of GPMVs with intracellular staining, vesicles from Glu/Gly-challenged vs unchallenged cells", "setting": "[3]", "value": "did not alter"},
      {"measurement": "Cumulative efflux (AUC), glutamate-challenged vs unchallenged cells, long-term application", "setting": "[4]", "value": "~ 24%"}
    ]},
    {"compound": "KLALKLALKALKAALKLA [MAP]", "values": [
      {"measurement": "Half-life (t1/2)", "setting": "[2]", "value": "> 72", "unit": "h"}
    ]},
    {"compound": "KLALKLALKALKAALKLAARSRLAELRGVPRGL [MAP-CBD3]", "values": [
      {"measurement": "Inhibition of NR2B-CRMP2 interaction relative to no peptide control", "setting": "[5]", "value": "~ 60%"}
    ]},
    {"compound": "RRRRRRRRR [R9, nona-arginine, cationic cell penetrating peptide]", "values": [
      {"measurement": "Half-life (t1/2)", "setting": "[2]", "value": "~ 2 h"},
      {"measurement": "Penetration compared to TAT", "setting": "[6]", "value": "greater than 20 fold"}
    ]},
    {"compound": "RRRRRRRRRARSRLAELRGVPRGL [R9-CBD3]", "values": [
      {"measurement": "IC50", "setting": "[1]; 24 h", "value": "~564", "unit": "nM"},
      {"measurement": "Inhibition of NR2B-CRMP2 interaction relative to no peptide control", "setting": "[5]", "value": "~ 80%"}
    ]},
    {"compound": "YGRKKRRQRRR [TAT]", "values": [
      {"measurement": "Half-life (t1/2)", "setting": "[2]", "value": "~ 9 h"}
    ]},
    {"compound": "YGRKKRRQRRRARSRLAELRGVPRGL [TAT-CBD3]", "values": [
      {"measurement": "Percent of GPMVs exhibiting lumenal accumulation of smaller vesicles", "setting": "[3]; GPMVs from control (untreated) cortical neurons, 5 µM di-4-ANEPPDHQ, room temperature, 3 h (methods) or 60 min, fluorescence microscopy, n = 2 experiments", "value": "~ 54%"},
      {"measurement": "Change in percent of GPMVs with intracellular staining, vesicles from Glu/Gly-challenged vs unchallenged cells", "setting": "[3]", "value": "did not alter"},
      {"measurement": "Efflux fluorescence compared to MTS-CBD3-treated cells, long-term application", "setting": "[4]; 1, 2 and 3 h post peptide application, irrespective of excitotoxic challenge", "value": "lower"},
      {"measurement": "Cumulative efflux (AUC), glutamate-challenged vs unchallenged cells, long-term application", "setting": "[4]", "value": "indistinguishable"},
      {"measurement": "IC50", "setting": "[1]; concentration-response viability curve, four-parameter fit, variable Hill slope, 32 wells from two experiments, extrapolated, read-out: IC50 for inhibition of glutamate-mediated toxicity", "value": 3200, "unit": "nM"}
    ]}
  ]
}
